The numbers were not newly measured in US8765743B2, “Compounds” (Glaxosmithkline Intellectual Property Development Limited, priority 2008, dated 2014), which cites them from elsewhere.

Where two headings read alike, the source gives them in different places.

One series addresses CK2 protein kinase (Homo sapiens, UniProt P68400).

CK2 protein kinase, sequence (P68400 whole entry): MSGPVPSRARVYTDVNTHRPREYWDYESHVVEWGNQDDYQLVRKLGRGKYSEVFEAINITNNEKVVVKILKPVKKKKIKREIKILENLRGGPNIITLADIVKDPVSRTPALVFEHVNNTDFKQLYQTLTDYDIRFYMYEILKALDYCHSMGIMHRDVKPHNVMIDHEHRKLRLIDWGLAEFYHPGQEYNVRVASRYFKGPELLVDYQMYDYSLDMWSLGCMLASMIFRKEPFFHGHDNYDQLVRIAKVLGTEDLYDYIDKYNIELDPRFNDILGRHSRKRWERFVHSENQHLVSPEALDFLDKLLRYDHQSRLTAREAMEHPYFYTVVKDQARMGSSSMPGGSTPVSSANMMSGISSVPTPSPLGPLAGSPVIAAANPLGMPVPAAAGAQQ

The term IC50 denotes the concentration needed to halve the response being measured. As for `O=c1cc(N2CCOCC2)oc2c(-c3ccccc3)cccc12` [LY294002], the IC50 was 5 to 10 µM on CK2 protein kinase and 15 to 20 µM with Class I PI3-kinases (Fruman et al. 1998, read-out: IC50 values against each of these PI3-kinases). In the case of wortmannin, in the series with Class I PI3-kinases (read-out: IC50 values against each of the various Class I PI3-kinases), the IC50 is 0.001 to 0.01 µM.
